Data as given in patent US20250145665A1, “MACROCYCLIC PEPTIDES USEFUL AS MODULATORS OF TNF ALPHA” (Bristol-Myers Squibb Company, priority 2023, published 2025).
Where two headings read alike, the source gives them in different places. Starred links: 1 amine or outer side, 2 acyl side, 3 side chain; linkers in the order of their positions; H or OH if unused. Positions of bridges follow the written chain, without caps; N, C: chain ends. Non-standard residues stand in square brackets, D forms with d. Residues, ends and D or L forms follow the SMILES beside them. *: point of attachment. Bip(4'-NHCO-C6H4-3-CH2COOH) = N[C@@H](Cc1ccc(-c2ccc(NC(=O)c3cccc(CC(=O)O)c3)cc2)cc1)C(=O)O; X22 = O=C(O)COc1cccc(C(=O)N[C@@H](Cc2cn(CC(=O)O)c3ccccc23)C(=O)*)c1; Bip(4'-NH) = O=C([C@H](Cc1ccc(-c2ccc(N[*:3])cc2)cc1)N[*:1])[*:2]; Bip(4'-CONHMe) = CNC(=O)c1ccc(-c2ccc(C[C@H](N)C(=O)O)cc2)cc1; dArg(ω-Bn(3-CH2OH)) = N=C(NCCC[C@@H](N)C(=O)O)NCc1cccc(CO)c1; Indazole3carbonyl(1-CH2COOH) = O=C(O)Cn1nc(C(=O)*)c2ccccc21; Bip(4'-COOH) = N[C@@H](Cc1ccc(-c2ccc(C(=O)O)cc2)cc1)C(=O)O; Bip(4'-NHAc) = CC(=O)Nc1ccc(-c2ccc(C[C@H](N)C(=O)O)cc2)cc1; X29 = N=C(NCCC[C@@H](N[*:1])C(=O)[*:2])NCCc1ccc(F)c(F)c1; Ala(imidazol-2-yl) = N[C@@H](Cc1ncc[nH]1)C(=O)O; Ala(morpholin-4-yl) = N[C@@H](CN1CCOCC1)C(=O)O; Benzoyl(3-OCH2COOH) = O=C(O)COc1cccc(C(=O)*)c1; Phe(3-CONH2) = NC(=O)c1cccc(C[C@H](N)C(=O)O)c1; Bip = N[C@@H](Cc1ccc(-c2ccccc2)cc1)C(=O)O; Hyp = O=C(O)[C@@H]1C[C@@H](O)CN1; 2Pal = N[C@@H](Cc1ccccn1)C(=O)O; Cha = N[C@@H](CC1CCCCC1)C(=O)O; Sar = CNCC(=O)O

Target: TNFα (Homo sapiens, UniProt P01375)
Experiment: TNF-Induced HEK-Blue Assay
Format: cell-based
[1] = HEK-Blue-CD40L cells, NF-kB-driven secreted alkaline phosphatase reporter, TNFα 0.5 ng/ml, 18 h, read-out: TNF induced HEK-Blue assay IC50 value

TNFα, sequence (P01375 77-233 limits assumed): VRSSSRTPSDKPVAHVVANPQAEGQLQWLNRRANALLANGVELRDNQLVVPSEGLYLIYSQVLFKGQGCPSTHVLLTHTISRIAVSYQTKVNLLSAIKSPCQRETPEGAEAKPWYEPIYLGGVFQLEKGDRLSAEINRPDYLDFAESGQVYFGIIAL

| SMILES | IC50 [1] [nM] | IC50 [nM] |
| --- | --- | --- |
| CC(C)C[C@@H]1NC(=O)[C@H](CCCNC(=N)N)NC(=O)[C@H](C(C)C)NC(=O)[C@@H]2C[C@@H](O)CN2C(=O)[C@H](C(C)C)NC(=O)[C@H](CCCNC(=N)N)NC(=O)[C@H](CC(=O)O)NC(=O)[C@@H]2CCCN2C(=O)CN(C)C(=O)[C@H](Cc2ccc(-c3ccccc3)cc2)NC(=O)[C@H](Cc2ccc(-c3ccccc3)cc2)NC(=O)[C@H](CN2CCOCC2)NC(=O)CSC[C@@H](C(=O)NCC(N)=O)NC1=O [Example 70] ({CH2CO}-[Ala(morpholin-4-yl)][Bip][Bip][Sar]PDRV[Hyp]VRLCG-NH2; thioether N-13) | 200 to 2000 | – |
| CNC(=O)c1ccc(-c2ccc(C[C@@H]3NC(=O)[C@H](CN4CCOCC4)NC(=O)CSC[C@@H](C(=O)NCC(N)=O)NC(=O)[C@H](CC(C)C)NC(=O)[C@H](CCCNC(=N)N)NC(=O)[C@H](C(C)C)NC(=O)[C@@H]4CCCN4C(=O)[C@H](C(C)C)NC(=O)[C@@H](CCCNC(=N)NCCc4ccc(F)c(F)c4)NC(=O)[C@H](CC(=O)O)NC(=O)[C@@H]4CCCN4C(=O)CN(C)C(=O)[C@H](Cc4ccc(-c5ccc(NC(=O)c6nn(CC(=O)O)c7ccccc67)cc5)cc4)NC3=O)cc2)cc1 [Example 424] ({CH2CO}-[Ala(morpholin-4-yl)][Bip(4'-CONHMe)][Bip(4'-NH)](Indazole3carbonyl(1-CH2COOH))[Sar]PD[X29]VPVRLCG-NH2; thioether N-13) | – | 50 to 200 |
| CC(C)C[C@@H]1NC(=O)[C@H](Cc2ccc(O)cc2)NC(=O)[C@H](C(C)C)NC(=O)CN(C)C(=O)[C@H](C(C)C)NC(=O)[C@@H](CCCNC(=N)N)NC(=O)[C@H](CC(=O)O)NC(=O)[C@H](Cc2ccc(O)cc2)NC(=O)CN(C)C(=O)[C@H](Cc2ccc(-c3ccccc3)cc2)NC(=O)[C@H](Cc2ccc(-c3ccccc3)cc2)NC(=O)[C@H](CN2CCOCC2)NC(=O)CSC[C@@H](C(=O)NCC(N)=O)NC1=O [Example 134] ({CH2CO}-[Ala(morpholin-4-yl)][Bip][Bip][Sar]YD[dR]V[Sar]VYLCG-NH2; thioether N-13) | 50 to 200 | – |

Second part, led by results:

| IC50 [1] [nM] | SMILES | IC50 [nM] |
| --- | --- | --- |
| < 50 | CC(=O)Nc1ccc(-c2ccc(C[C@@H]3NC(=O)[C@H](Cc4ccc(-c5ccccc5)cc4)NC(=O)[C@H](CC4CCCCC4)NC(=O)CSC[C@@H](C(=O)NCC(N)=O)NC(=O)[C@H](CC(C)C)NC(=O)[C@H](Cc4cccc(C(N)=O)c4)NC(=O)[C@H](C(C)C)NC(=O)[C@@H]4CCCN4C(=O)[C@H](C(C)C)NC(=O)[C@@H](CCCNC(=N)N)NC(=O)[C@H](CC(=O)O)NC(=O)[C@H](Cc4ccccn4)NC(=O)CN(C)C3=O)cc2)cc1 [Example 233] ({CH2CO}-[Cha][Bip][Bip(4'-NHAc)][Sar][2Pal]D[dR]VPV[Phe(3-CONH2)]LCG-NH2; thioether N-13) | – |
| < 50 | CC[C@H](C)[C@@H]1NC(=O)[C@@H](CCCNC(=N)NCc2cccc(CO)c2)NC(=O)[C@H](CC(=O)O)NC(=O)[C@H](Cc2cnc[nH]2)NC(=O)CN(C)C(=O)[C@H](Cc2ccc(-c3ccc(NC(=O)c4cccc(CC(=O)O)c4)cc3)cc2)NC(=O)[C@H](Cc2ccc(-c3ccccc3)cc2)NC(=O)[C@H](CC2CCCCC2)NC(=O)CSC[C@@H](C(=O)NCC(N)=O)NC(=O)[C@H](CC(C)C)NC(=O)[C@H](Cc2c[nH]cn2)NC(=O)[C@H](C(C)C)NC(=O)[C@@H]2CCCN2C1=O [Example 504] ({CH2CO}-[Cha][Bip][Bip(4'-NHCO-C6H4-3-CH2COOH)][Sar]HD[dArg(ω-Bn(3-CH2OH))]IPVHLCG-NH2; thioether N-13) | – |
| 50 to 200 | CC[C@H](C)[C@@H]1NC(=O)[C@@H](CCCNC(=N)N)NC(=O)[C@H](CC(=O)O)NC(=O)[C@H](Cc2cnc[nH]2)NC(=O)CN(C)C(=O)[C@H](Cc2ccc(-c3ccc(NC(=O)[C@H](Cc4cn(CC(=O)O)c5ccccc45)NC(=O)c4cccc(OCC(=O)O)c4)cc3)cc2)NC(=O)[C@H](Cc2ccc(-c3ccccc3)cc2)NC(=O)[C@H](CC2CCCCC2)NC(=O)CSC[C@@H](C(=O)NCC(N)=O)NC(=O)[C@H](CC(C)C)NC(=O)[C@H](Cc2ncc[nH]2)NC(=O)[C@H](C(C)C)NC(=O)[C@@H]2CCCN2C1=O [Example 414] ({CH2CO}-[Cha][Bip][Bip(4'-NH)](X22)[Sar]HD[dR]IPV[Ala(imidazol-2-yl)]LCG-NH2; thioether N-13) | – |
| < 50 | CC(C)C[C@@H]1NC(=O)[C@H](Cc2cccc(C(N)=O)c2)NC(=O)[C@H](C(C)C)NC(=O)[C@@H]2CCCN2C(=O)[C@H](C(C)C)NC(=O)[C@@H](CCCNC(=N)N)NC(=O)[C@H](CC(=O)O)NC(=O)[C@H](Cc2cnc[nH]2)NC(=O)CN(C)C(=O)[C@H](Cc2ccc(-c3ccc(NC(=O)c4cccc(OCC(=O)O)c4)cc3)cc2)NC(=O)[C@H](Cc2ccc(-c3ccc(C(=O)O)cc3)cc2)NC(=O)[C@H](CC2CCCCC2)NC(=O)CSC[C@@H](C(=O)NCC(N)=O)NC1=O [Example 587] ({CH2CO}-[Cha][Bip(4'-COOH)][Bip(4'-NH)](Benzoyl(3-OCH2COOH))[Sar]HD[dR]VPV[Phe(3-CONH2)]LCG-NH2; thioether N-13) | – |
